Patent US20220184037A1, “PHARMACEUTICAL AGENTS TARGETING CANCER STEM CELLS” (THE JOHNS HOPKINS UNIVERSITY, priority 2020, published 2022)

Tests used:
[1] = tested on: let-7 host gene MIRLET7BHG promoter; assay: Bisulfite sequencing of let-7 host gene promoter methylation; type: cell-based, human; settings: 10 μM celecoxib, 2 μM PGE2, or 5 μM 5-Aza-dC for 5 days
Procedure: Cell pellets were digested with 1% sodium dodecyl sulfate and 50 μg/mL proteinase K (Roche, Nutley, USA) at 48° C. overnight. Isolation of genomic DNA from cell lines was performed with the phenol-chloroform extraction protocol followed by ethanol precipitation. Bisulfite treatment was conducted using an EpiTect Bisulfite K ft (QIAGEN, Valencia, USA), and was subsequently amplified via PCR using primers as shown in the following table. PCR products were purified using the QIAquick Gel Extraction kit (Qiagen), and sequenced by Genewiz DNA sequencing service (Genewiz, South Plainfield, USA). The data were analyzed using the Sequence Scanner v1.0 software (Life technologies). A methylation frequency of ≥50% of total CpG sites within the amplified region was considered “methylation-positive”. For demethylation, cells ([…]) dissolved in 50% acetic acid or were mock-treated with phosphate buffered saline (PBS) including the same amount of acetic acid every 24 hours for 5 days. When combined with the histone deacetylase inhibitor TSA (Sigma), 300 nmol/L TSA was added to the medium for the final 24 hours.

[2] = tested on: panel of miRNAs in BFTC 905 cells; assay: Expression of a panel of miRNAs; type: cell-based, human; settings: COX2 inhibitor
Procedure: Total RNA from cell lines was isolated using the RNeasy Plus Mini kit (Qiagen, Valencia, USA) according to the manufacturer's protocol. Total RNA extraction from bladder tissue was performed with the QIAzol Lysis Reagent (Qiagen) followed by phenol extraction and ethanol precipitation. Total RNA was eluted in DEPC treated water and stored at −80 ° C. Total RNA extraction from urine was performed using the MirVana miRNA Isolation Kit (Ambion, Austin, USA). These total RNA were converted to cDNA using the SuperScript III First-Strand Synthesis System (Life technologies, Carlsbad, USA), which was then used as a template for Q-RT-PCR. Q-RT-PCR was performed using the Fast SYBR Green Master Mix (Thermo Fisher Scientific, Waltham, USA) on a 7900HT Fast Real-Time PCR System (Life technologies) in triplicate. Micro RNA (miRNA) extraction was performed using the MirVana miRNA Isolation Kit, and was reverse transcribed using TaqMan reverse transcription kit (Applied Biosystems, Foster City, USA) and miRNA-specific RT primers provided with TaqMan microRNA assays (Applied Biosystems). Q-RT-PCR for miRNAs was performed using the TaqMan Universal PCR Master Mix according to the manufacturer's protocol. SDS software (Applied Biosystems) was used to determine cycle threshold (Ct) values. Expression level was quantified relative to β-actin for mRNA and RNU6B for miRNA using the 2-ΔΔCt method (12).

[3] = tested on: xenograft tumors that acquired resistance to erlotinib (5637 cells); assay: In vivo therapeutic efficacy in tumors with acquired resistance to erlotinib; set-up: species or system mice; settings: western blotting (FIG. 7G)
Procedure: For therapeutic efficacy, mice were randomly assigned into experimental groups (five mice per group) when tumors reached a volume of […]. For celecoxib and/or VP treatment, celecoxib (5 mg/kg) was administered via intraperitoneal (i.p.) injection once a day (17), and VP (50 mg/kg) was administered via i.p. every other day (18). EP4 antagonist ONO-AE3-208 (10 mg/kg) was administered via i.p. once a day (19). Control was applied with same volume (10 μL per injection) of 10% dimethyl sulphoxide in 1% TWEEN 80 (Sigma-Aldrich). For GEM and CDDP (GC) treatment (i.p.), CDDP (6 mg/kg) was only applied after the first GEM (60 mg/kg) treatment on day 2, followed by three consecutive treatments of GEM on day 5, 8 and 11 (17). The next cycle was started on day 18, and the treatment was continued until tumor reached 2 cm in diameter. For erlotinib treatment, the mice were treated once a day, 6 days per week, by oral gavage with erlotinib (100 mg/kg) or control (PBS containing 0.5% methyl cellulose (Sigma-Aldrich) and 0.1% TWEEN 80) (20). Tumor size was measured at least every three days. Therapeutic efficacy was assessed using percentage change after treatment related to tumor size before treatment. […]

Row | SMILES | promoter methylation of the let-7 host gene [1] | expression of several miRNAs [2] | EGFR-MAPK signaling in xenograft tumors [3]
1 | Cc1ccc(-c2cc(C(F)(F)F)nn2-c2ccc(S(N)(=O)=O)cc2)cc1 [celecoxib, Celecoxib] | demethylated | induced expression | 
2 | C#Cc1cccc(Nc2ncnc3cc(OCCOC)c(OCCOC)cc23)c1 [erlotinib, Erlotinib] |  |  | remained suppressed
